These results are taken from article PMC9415161, “PEG-Bottlebrush Stabilizer-Based Worm-like Nanocrystal Micelles with Long-Circulating and Controlled Release for Delivery of a BCR-ABL Inhibitor against Chronic Myeloid Leukemia (CML)” (Pharmaceutics, 2022).

Read-outs that look alike come from different tables or passages of the source.

For data set [1], the system named is K562 cells. Put plainly: In vitro cell toxicity assay (CCK8). The note with it: Homo sapiens, K562, 72 h. Format: cell-based. The protocol: The K562 cell line used in this work was ordered from the American Type Culture Collection (ATCC, Manassas, VA, USA). The K562 cells were cultured in RPMI 1640 with 10% fetal bovine serum (FBS) (VivaCell, Shanghai, China) and 1% penicillin/streptomycin in a humidified incubator at 37 °C with 5% CO2. Firstly, K562 cells were seeded into 96-well plates with 100 μL of 1640 medium containing 3000 cells per well, and were incubated at 37 °C under 5% CO2. Subsequently, the cells in each well were treated with a series of concentrations of free 053 in DMSO, 053-F127 NCs, and 053-PPP NC micelles, respectively. Cell viability was determined using the Cell Counting Kit-8 (CCK8) (Best Bio, Shanghai, China) based on the manufacturer’s instructions. Subsequently, 10 μL of CCK8 solution was added to each well, and the absorbance of each well at a wavelength of 450 nm was measured using a microplate reader (iMARK, Bio-Rad, Hercules, CA, USA) after further incubation for 1 h at 37 °C. The absorbance was normalized and plotted as a function of drug concentration. The GI50 values were calculated using GraphPad Prism 8.0 (San Diego, CA, USA).

Data set [2] is described as follows: In vivo pharmacokinetics after tail vein injection. To be noted: male, Sprague-Dawley, rat, plasma, rats, IV 1 mg/kg, n = 3. Here is the method: The in vivo profiling of free 053, 053-F127 NCs, and 053-PPP NC micelles were evaluated and compared using PK tests in male Sprague Dawley rats with individual weights of ~200 g (from the Laboratory Animal Center of Anhui Medical University, Hefei, China), approved by the Animal Ethics Committee of Hefei Institutes of Physical Science, Chinese Academy of Sciences, Hefei, China (approval code: DW-2019-20). The rats were housed in an air-conditioned room at 23 ± 2 °C and humidity of ~50%. After acclimatizing the facilities for 1 week, the rats were randomly divided into three groups (three per group): free 053, 053-F127 NC, and 053-PPP NC micelle. The rats were fasted for 12 h prior to drug administration. Free 053 (dissolved in 10% v/v DMSO in glucose 5%), 053-F127 NC, and 053-PPP NC micelle suspensions were administrated by tail vein injection at a dose of 1 mg/kg. Blood samples were collected in heparinized tubes at 2, 5, 15, 30 min and 1, 2, 4, 6, 9, 12, and 24 h (for all three groups). For the 053-PPP NC micelle group, blood was sampled at another three time points of 72, 96, and 120 h. The collected fresh blood samples were immediately processed in accordance with the following protocol: (1) collection of 100 μL of plasma by centrifuging the blood samples for 3 min at 6000 rpm and 4 °C, followed by storage at –80 °C for further analysis; (2) 20 μL of 200 ng/mL of caffeine (as an internal standard solution) was added to 100 μL of each plasma sample; (3) 400 μL of methanol was applied, vortexed for 5 min, and centrifuged at 14,000 rpm for 10 min; (4) the collected supernatants were quantified via LC-MS/MS analysis by loading 5 μL of supernatant. The collected data were analyzed by the non-compartment model using WinNonlin 8.1 software (Pharsight Corporation, Mountain View, CA, USA) to elucidate the PK parameters.

The test system of another data set is K562 xenograft. Description: In vivo anticancer efficacy in K562 xenograft mouse model. Also noted: species or system Bal B/c nude mice. The note with it: 40 mg/kg QD, PO, n = 5. Here is the method:
Female Bal B/c nude mice were used to establish K562 xenograft mouse models according to the protocol described above. When the tumors reached 150–200 mm^3, the mice were randomly divided into seven groups (n = 5) for the evaluation of antitumor efficacy in vivo at 40 mg/kg: Vehicle, free 053 QD (Once a day, PO), 053-F127 NC QD (IV), 053-F127 NC Q2D (Once every other day, IV), 053-PPP NC QD (IV), 053-PPP NC Q2D (IV), and 053-PPP NC Q4D (once every 4 days, IV). During the treatment, body weight and tumor growth were measured daily. Tumor volumes (V) were calculated as follows (Equation (3)):V (mm^3) = [(W^2 × L)/2],(3) where width (W) and length (L) are defined as the lower and higher of two measurements, respectively. When the tumors of the vehicle group reached the limit of the animal ethical regulations, the test was stopped. All the mice were euthanized, and major tissues/organs were harvested for immunohistochemical (IHC) analysis, including HE, Ki-67, and TUNEL staining.

The subject of data set [3] is K562 cells. Further details: method as in PMID 26789553. The note with it: against K562 cells; cited from earlier work.
Details of data set [4]: method as in PMID 26789553. To be noted: cited from earlier work.
On the set-up of data set [5]: method as in PMID 26789553. The note with it: 50 mg/kg, P.O.; cited from earlier work.

Consider `CNc1ncncc1C(=O)Nc1cc(NC(=O)c2cccc(C(F)(F)F)c2)ccc1C` [Free 053, N-(2-methyl-5-(3-(trifluoromethyl)benzamido)phenyl)-4-(methylamino)pyrimidine-5-carboxamide], for which, in the data set with K562 cells [1], the concentration for 50% growth inhibition (GI50) (as a rule, the concentration giving 50% growth inhibition) was 5.95 ± 1.95 nM. In data set [2], the AUC(0-inf) (as a rule, total exposure, with the tail of the curve extrapolated) is 509 ± 132 ng·h/mL; the AUC(0-t) (as a rule, the area under the concentration-time curve up to a stated or last time point) came out at 499 ± 132 ng·h/mL; the C0 was 555 ± 142 ng/mL; the Cmax – broadly, the peak of the concentration-time curve – came out at 364 ± 42 ng/mL. In addition, in data set [2], the Tmax (usually the time at which the peak concentration occurs) is 1.8 min; the clearance (usually the volume of plasma or blood freed of the substance per unit of time) is 34.3 mL/min/kg; the half-life (as a rule, the time needed for the level to fall by half in the phase considered) was 121 ± 25.2 min. Moreover, the MRT last in data set [2] (read-out: MRT0–t) worked out at 2.54 ± 0.55 h. In data set [2] (read-out: MRT0–∞), the MRT inf came to 2.78 ± 0.57 h. Further, the Vd in data set [2] (read-out: Vz) stood at 5.87 ± 1.33 L/kg. Moreover, in the data set on K562 xenograft, the “tumor inhibition efficacy compared with the vehicle group” value is “did not show a significant difference”. The GI50 in the data set with K562 cells [3] is around 14 nM. Also, the oral bioavailability in data set [4] is ~ 24%. Besides, the TGI in data set [5] is 48.3%.
